The test system of experiment [1] is Dermcidin. Kind of experiment: Microarray analysis of human microdissected scalp hair follicles. Type of experiment: cell-based. As to conditions: sandal pentanol 500 μM, 6 hours, vs vehicle (0.1% DMSO). How it is done:
(§1) Human scalp samples were obtained 1 day after face-lifting procedure (i.e. after overnight transport from collaborating surgeons) and used at the same day for microdissecting human anagen VI scalp HFs. […] Microdissected human scalp HFs were cultured at 37° C. with 5% CO2 in a minimal media of William's E media (WEM, Gibco, Life technologies) supplemented with 2 mM of L-glutamine (Gibco), 10 ng/ml hydrocortisone (Sigma-Aldrich), 10 μg/ml insulin (Sigma-Aldrich) and 1% penicillin/streptomycin mix (Gibco) (WEM). After microdissection, the HFs were first incubated in WEM for 24 hrs for re-equilibration.
(§2) After 24 hours, WEM medium was replaced and HFs were treated with vehicle (0.1% DMSO), sandal pentanol 500 μM, for 3 or 5 days for (immuno-)histology or 6 hours for microarray. Culture medium was replaced every second day and after […], HFs were then embedded in cryomatrix (Fisher Scientific), and snap frozen in liquid nitrogen for (immuno-)histology.

For experiment [2], the system named is Dermcidin. As to the kind of experiment: Dermcidin immunofluorescent staining in human microdissected scalp hair follicle organ culture. In kind it is cell-based. The following applies: 500 μM, 3 and 5 days, ex vivo. The protocol: as §1, §2
OCT embedded samples were sectioned with a Leica cryostat. Dermicidin protein was detected using tissue sections fixed in 4% paraformaldehyde, pre-incubated with 10% of goat serum, and incubated with a mouse anti-human Dermcidin (Novus Biologicals, G-81, 1:200). Secondary antibody (Goat anti—mouse Alexa fluor 488) incubation was performed at room temperature for 45 min. Counterstaning with DAPI (1 μg/mL) was performed to visualize nuclei.

The structures appear in SMILES notation.

In the case of `CC1=CCC(CCC(C)C(C)O)C1(C)C` (stereo not drawn) [Sandalore, 3-methyl-5-(2,2,3-trimethylcyclopent-3-en-1-yl)pentan-2-ol], in the experiment on Dermcidin [1], the “Dermcidin expression increase (microarray)” value is reported as 77.6 folds and the “transcripts of AMPs genes (microarray)” value is recorded as “up-regulated”. For the same compound, in the experiment with Dermcidin [2], the “Dermcidin protein expression in hair follicle outer root sheath keratinocytes” value is “increased”.
